Results from patent US20170112877A1, “NON-TOXIC AGENT FOR A BROAD-SPECTRUM, BACTERICIDAL OR BACTERIOSTATIC TREATMENT OF ANTIBIOTIC-RESISTANT BACTERIA IN ANIMALS” (LIVELEAF, INC., priority 2015, published 2017).

Experiments:
[1] = Amount of hydrogen peroxide bound to model compounds or extracts in dry form (peroxide test strip); format: physicochemical
Excerpt: Art-recognized procedures, such as those set-forth at least in U.S. Pat. Nos. 3,860,694; 3,864,454; 4,171,280; and 4,966,762, were used as a guide for this study. […] As discussed, one of skill will appreciate that hydrogen peroxide in a free form, for example, would otherwise quickly degrade. The polyphenols were provided from model compounds or plant extracts. A dry form of the compositions was made between (i) gallic acid (a model polyphenol building block from Sigma-Aldrich) and hydrogen peroxide; (ii) tannic acid (a model polyphenol component from Sigma-Aldrich) and hydrogen peroxide; (iii) pomegranate husk extract and hydrogen peroxide; and, (iv) green tea extract and hydrogen peroxide, using the procedures taught herein, including: • i. adding a solution of 35% hydrogen peroxide slowly into each of the gallic acid powder, tannic powder, pomegranate husk extract powder, or green tea extract powder. […] The hydrogen peroxide concentration measurements were taken using standard methods to determine the amount of hydrogen peroxide that bound to the model compounds or extracts in the dry form.

[2] = tested on: E. coli; assay: Antibacterial activity against E. coli in Muller-Hinton broth; format: cell-based; parameters: key: “+” means positive identification of bacterial growth; conditions: compound or extract alone, head 1%, 24 hours at 37° C.
Excerpt: (§1) The testing methods used follow the procedures set-forth by the Clinical and Laboratory Standards Institute (CLSI) and US Pharmacopeia.
(§2) E. coli was chosen as the bacteria to challenge the antibacterial activity of the bound compositions and the free hydrogen peroxide. A range of E. coli concentrations, ranging from 10-10^6 CFU/ml were used for the study. […]
(§3) Table 2 compares the antibacterial activities of each of the model compounds and extracts alone, without the formation of the bound compositions: gallic acid (a model polyphenol building block), tannic acid (a model polyphenol), pomegranate husk extract, and green tea extract were each used to challenge the E. coli alone. […]

[3] = tested on: E. coli; assay: as above; format: cell-based; parameters: key: “+” means identifiable bacterial growth.; “−” means no bacterial growth; conditions: 100 ppm, 24 hours at 37° C.
Excerpt: as §1, §2, §3

[4] = tested on: E. coli; assay: Stability of hydrogen peroxide in aqueous solution, bound compositions vs free hydrogen peroxide, challenged with E. coli; format: physicochemical; conditions: for hydrogen peroxide concentration: 125 ppm extract + 125 ppm H2O2 (1:1), E. coli 10^6 CFU/ml
Excerpt: This method tests the stability of the hydrogen peroxide in the combination. The testing methods used follow the standard procedures set-forth by the Clinical and Laboratory Standards Institute (CLSI) and US Pharmacopeia. • i. E. coli was chosen as the bacteria to challenge the stability of the bound compositions and the free hydrogen peroxide. • ii. The hydrogen peroxide concentration was matched to the selected bacteria in order to form a useful curve representing hydrogen peroxide degradation over time for the samples. […] FIG. 2A compares stabilities of free hydrogen peroxide to hydrogen peroxide bound to each of: gallic acid (a model polyphenol building block), tannic acid (a model polyphenol), pomegranate husk extract, green tea extract, and Blessed thistle extract. […] John's wort, Valerian, Apple, Grape, Echinacea purpurea, Grape seed extract, and Blueberry. In both FIGS. 2A and 2B, there are curves that cannot be identified well individually, as they are identical and overlapping. […]

[5] = tested on: E. coli; assay: Antibacterial activity against E. coli in Muller-Hinton broth; format: cell-based; conditions: 100 ppm, 24 hours at 37° C.
Excerpt: as §1, §2, §3

Structure (SMILES) | hydrogen peroxide bound, by total dry wt [1] | bacterial growth ([2]; E coli 10 CFU/ml) | bacterial growth ([2]; E coli 10^2 CFU/ml) | bacterial growth ([2]; E coli 10^3 CFU/ml) | bacterial growth ([2]; E coli 10^4 CFU/ml) | bacterial growth ([2]; E coli 10^5 CFU/ml) | bacterial growth ([2]; E coli 10^6 CFU/ml) | bacterial growth ([3]; E coli 10^2 CFU/ml) | bacterial growth ([3]; E coli 10^3 CFU/ml) | bacterial growth ([3]; E coli 10^4 CFU/ml) | bacterial growth ([3]; E coli 10^5 CFU/ml) | hydrogen peroxide concentration ([4]; 0 Hours) [ppm] | hydrogen peroxide concentration ([4]; 4 Hours) [ppm] | hydrogen peroxide concentration ([4]; 8 Hours) [ppm] | hydrogen peroxide concentration ([4]; 12 Hours) [ppm] | hydrogen peroxide concentration ([4]; 16 Hours) [ppm] | hydrogen peroxide concentration ([4]; 20 Hours) [ppm] | hydrogen peroxide concentration ([4]; 24 Hours) [ppm] | hydrogen peroxide concentration after degradation ([4]; within about the first 8 hours) [ppm] | fate of E. coli, all concentrations [5]
O=C(OC[C@H]1O[C@@H](OC(=O)c2cc(O)c(O)c(OC(=O)c3cc(O)c(O)c(O)c3)c2)[C@H](OC(=O)c2cc(O)c(O)c(OC(=O)c3cc(O)c(O)c(O)c3)c2)[C@@H](OC(=O)c2cc(O)c(O)c(OC(=O)c3cc(O)c(O)c(O)c3)c2)[C@@H]1OC(=O)c1cc(O)c(O)c(OC(=O)c2cc(O)c(O)c(O)c2)c1)c1cc(O)c(O)c(OC(=O)c2cc(O)c(O)c(O)c2)c1 [Tannic Acid, tannic acid] | about 2.5% | + | + | + | + | + | + | – | – | – | – | – | – | – | – | – | – | – | – | –
OO [H2O2, hydrogen peroxide] | – | – | – | – | – | – | – | + | + | + | + | 125 | 15 | 0 | 0 | 0 | 0 | 0 | ~0.0 | managed to survive
O=C(O)c1cc(O)c(O)c(O)c1 [Gallic Acid, gallic acid] | about 3.0% | + | + | + | + | + | + | – | – | – | – | – | – | – | – | – | – | – | – | –
